From US5387709A, “Substituted sulfonamides, process of preparation and medicines containing same” (Lipha Lyonnaise Industrielle Pharmaceutique, priority 1990, dated 1995) come the findings set out here.

One test relates to platelets of guinea-pig. The test can be described thus: Inhibition of the platelet aggregation induced by U46619 (BORN test), guinea-pig platelets. The conditions noted are these: Cavia porcellus, Platelet, read-out: PLATELET AGGREGATION GUINEA-PIG IC 50. It counts as cell-based. The source says:
(A) Inhibition of the platelet aggregation induced by U46619, a stable analogue of TXA2 (9,11-dideoxy-11α,9α-epoxymethanoprostaglandine F2 α):
The tests determine a concentration of compound which inhibits at 50% (CI50) a liminar aggregation induced by U46619. The activities of the compounds of the present invention are given in example 108.
(§1) The products of examples 1 to 107 have been tested for platelet aggregation on guinea-pig and on the contraction of the aorta in rat as described previously.

For another test, the system named is rat aorta. Description: Inhibition of the U46619 induced rat aorta vasoconstriction. It counts as cell-based. The conditions noted are these: Rattus norvegicus, contraction by U46619 (142 nM), rat thoracic aorta, 37° C.; read-out: VASOCONSTRICTION RAT AORTA IC 50. How it is done: (B) Inhibition of the U46619 induced rat aorta vasoconstriction:
male rats weighing about 300 g are put to death by euthanasia; the thoracic aorta is rapidly taken out. A sample of about 1 cm is cut into a spiral, and placed in a vat containing 20 ml of nutrient medium (Krebs-Henseleit) kept a 37° C. and oxygenated (O2 95%, CO2 5%). The contractions are recorded with an isotonic strain gauge. After a rest of 45 mn, supramaximum contractions are provoked by the addition of an analogue of TXA2 (U46619: 142 nM) to the survival medium. A plateau is generally reached after 10 mn of contact, the latter not exceeding 25 mn. A rest of 30 mn and a plurality of rinses take place after each contraction. The products are added 10 mn after U46619 and allowed to rest 15 mn, after which delay the inhibition is measured. The inhibitory concentration 50 (IC) is determined for each compound studied and on a minimum of 3 aortas. The activities of the compounds of the present invention are described in example 108.
as §1

Regarding `O=C(O)Cc1ccc(CC2(CNS(=O)(=O)c3ccccc3Cl)CCCC2)cc1` [Example 32, 4-[[1-[[[(2-Chlorophenyl)sulfonyl]amino]methyl]cyclopentyl]methyl]benzeneacetic acid], the IC50 is 1800 nM with platelets of guinea-pig and 400 nM with rat aorta.
The like results for `O=S(=O)(NCC1(Cc2ccc(CCO)cc2)CCCC1)c1cccc(Cl)c1` [Example 33, 3-Chloro-N-[[1-[[4-(2-hydroxyethyl)phenyl]methyl]cyclopentyl]methyl]benzenesulfonamide] were, in that order, over 5000 nM and over 1000 nM.
With `CC(=O)c1ccc(S(=O)(=O)NCC2(Cc3ccc(CCO)cc3)CCCC2)cc1` [Example 43, 4-Acetyl-N-[[1-[[4-(2-hydroxyethyl)phenyl]methyl]cyclopentyl]methyl]-benzenesulfonamide], the IC50 in the test with platelets of guinea-pig was over 5000 nM; with rat aorta, over 1000 nM.
Consider `O=C(O)Cc1ccc(CC2(CNS(=O)(=O)c3cccc(Cl)c3)CCCC2)cc1` [Example 52, 4-[[1-[[[(3-Chlorophenyl)sulfonyl]amino]methyl]cyclopentyl]methyl]benzeneacetic acid], for which the results for the IC50 in the test with platelets of guinea-pig and in the test on rat aorta were over 5000 nM and over 1000 nM, respectively.
Take `O=C(O)Cc1ccc(CC2(CNS(=O)(=O)c3ccc(Br)cc3)CCCC2)cc1` [Example 53, 4-[[1-[[[(4-Bromophenyl)sulfonyl]amino]methyl]cyclopentyl]methyl]benzeneacetic acid]: the IC50 with platelets of guinea-pig worked out at 160 nM; with rat aorta, 10 nM.
The like results for `O=C(O)Cc1ccc(CC2(CNS(=O)(=O)c3ccc(I)cc3)CCCC2)cc1` [Example 54, 4-[[1-[[[(4-Iodophenyl)sulfonyl]amino]methyl]cyclopentyl]methyl]benzeneacetic acid] were, in that order, 1100 nM and 40 nM.
In the case of `O=C(O)Cc1ccc(CC2(CNS(=O)(=O)c3ccc(C(F)(F)F)cc3)CCCC2)cc1` [Example 55, 4-[[1-[[[(4-Trifluoromethylphenyl)sulfonyl]amino]methyl]cyclopentyl]methyl]benzeneacetic acid], the IC50 in the test with platelets of guinea-pig amounted to 2900 nM; with rat aorta, 100 nM.
The like results for `O=C(O)Cc1ccc(CC2(CNS(=O)(=O)c3cccc(C(F)(F)F)c3)CCCC2)cc1` [Example 56, 4-[[1-[[[(3-Trifluoromethylphenyl)sulfonyl]amino]methyl]cyclopentyl]methyl]benzeneacetic acid] were, in that order, 5000 nM and 1000 nM.
With `N#Cc1ccc(S(=O)(=O)NCC2(Cc3ccc(CC(=O)O)cc3)CCCC2)cc1` [Example 57, 4-[[1-[[[(4-Cyanophenyl)sulfonyl]amino]methyl]cyclopentyl]methyl]benzeneacetic acid], the results for the IC50 with platelets of guinea-pig and in the test on rat aorta were 690 nM and 100 nM, respectively.
For `O=C(O)Cc1ccc(CC2(CNS(=O)(=O)c3cccc([N+](=O)[O-])c3)CCCC2)cc1` [Example 58, 4-[[1-[[[(3-Nitrophenyl)sulfonyl]amino]methyl]cyclopentyl]methyl]benzeneacetic acid], in that order: 6300 nM and 1000 nM.
For `O=C(O)Cc1ccc(CC2(CNS(=O)(=O)c3ccc(Cl)cc3Cl)CCCC2)cc1` [Example 59, 4-[[1-[[[(2,4-Dichlorophenyl)sulfonyl]amino]methyl]cyclopentyl]methyl]benzeneacetic acid], in that order: 1400 nM and 80 nM.
On to `CC(C)c1ccc(S(=O)(=O)NCC2(Cc3ccc(CC(=O)O)cc3)CCCC2)cc1` [Example 60, 4-[[1-[[[[4-(1-Methylethyl)phenyl]sulfonyl]amino]methyl]cyclopentyl]methyl]benzeneacetic acid], for which the IC50 in the test on platelets of guinea-pig is over 5000 nM; with rat aorta it was over 1000 nM.
The like results for `CC(C)(C)c1ccc(S(=O)(=O)NCC2(Cc3ccc(CC(=O)O)cc3)CCCC2)cc1` [Example 61, 4-[[1-[[[[4-(1,1-Dimethylethyl)phenyl]sulfonyl]amino]methyl]cyclopentyl]methyl]benzeneacetic acid] were, in that order, over 5000 nM and over 1000 nM.
For `CC(=O)c1ccc(S(=O)(=O)NCC2(Cc3ccc(CC(=O)O)cc3)CCCC2)cc1` [Example 62, 4-[[1-[[[(4-Acetylphenyl)sulfonyl]amino]methyl]cyclopentyl]methyl]benzeneacetic acid], in that order: 3000 nM and 750 nM.
For `CS(=O)(=O)c1ccc(S(=O)(=O)NCC2(Cc3ccc(CC(=O)O)cc3)CCCC2)cc1` [Example 63, 4-[[1-[[[(4-Methylsulfonylphenyl)sulfonyl]amino]methyl]cyclopentyl]methyl]benzeneacetic acid], in that order: over 5000 nM and over 1000 nM.
`O=C(O)Cc1ccc(CC2(CNS(=O)(=O)c3ccc(OC(F)(F)F)cc3)CCCC2)cc1` [Example 64, 4-[[1-[[[(4-Trifluoromethoxyphenyl)sulfonyl]amino]methyl]cyclopentyl]methyl]benzeneacetic acid]: the IC50 in the test with platelets of guinea-pig stood at 2600 nM; in the test on rat aorta, 130 nM.
The like results for `COc1ccc(S(=O)(=O)NCC2(Cc3ccc(CC(=O)O)cc3)CCCC2)cc1` [Example 65, 4-[[1-[[[(4-Methoxyphenyl)sulfonyl]amino]methyl]cyclopentyl]methyl]benzeneacetic acid] were, in that order, 350 nM and 270 nM.
The like results for `Cc1cnc2c(S(=O)(=O)NCC3(Cc4ccc(CC(=O)O)cc4)CCCC3)cccc2c1` [Example 66, 4-[[1-[[[(3-Methylquinol-8-yl)sulfonyl]amino]methyl]cyclopentyl]methyl]benzeneacetic acid] were, in that order, over 5000 nM and over 1000 nM.
For `O=C(O)Cc1ccc(CC2(CNS(=O)(=O)c3cccs3)CCCC2)cc1` [Example 67, 4-[[1-[[[(Thien-2-yl)sulfonyl]amino]methyl]cyclopentyl]methyl]benzeneaceticacid], in that order: 1500 nM and 280 nM.
Regarding `O=C(O)Cc1ccc(CC2(CNS(=O)(=O)c3ccc(Cl)s3)CCCC2)cc1` [Example 68, 4-[[1-[[[(5-Chlorothien-2-yl)sulfonyl]amino]methyl]cyclopentyl]methyl]benzeneacetic acid], the results for the IC50 in the test on platelets of guinea-pig and in the test with rat aorta were 4000 nM and 400 nM, respectively.
For the molecule `O=C(O)Cc1ccc(CC2(CNS(=O)(=O)c3c[nH]cn3)CCCC2)cc1` [Example 69, 4-[[1-[[[(Imidazol-4-yl)sulfonyl]amino]methyl]cyclopentyl]methyl]benzeneacetic acid], the IC50 with platelets of guinea-pig was over 5000 nM; in the test with rat aorta, over 1000 nM.
For `O=C(O)Cc1ccc(CC2(CNS(=O)(=O)c3ccco3)CCCC2)cc1` [Example 70, 4-[[1-[[[(fur-2-yl)sulfonyl]amino]methyl]cyclopentyl]methyl]benzeneacetic acid], in that order: over 5000 nM and 1000 nM.
The like results for `O=C(O)Cc1ccc(CC2(CNS(=O)(=O)c3ccc(O)cc3)CCCC2)cc1` [Example 71, 4-[[1-[[[(4-Hydroxyphenyl)sulfonyl]amino]methyl]cyclopentyl]methyl]benzeneacetic acid] were, in that order, 3000 nM and 40 nM.
The like results for `O=C(O)Cc1ccc(CC2(CNS(=O)(=O)c3ccc(Cl)cc3)CC2)cc1` [Example 72, 4-[[1-[[[(4-Chlorophenyl)sulfonyl]amino]methyl]cyclopropyl]methyl]benzeneacetic acid] were, in that order, 640 nM and 40 nM.
